From patent publication US7767659B2, “Synthesis of naturally occurring ecteinascidins and related compounds” (Pharma Mar, S.A., priority 2002, dated 2010)
Where two headings read alike, the source gives them in different places.

How the values were obtained:
A-549 = assay: cells; details: Homo sapiens, A549, 48 h
Outline: (§1)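 Colorimetric SRB read (490 nm) on triplicate wells after 48 h at 37 °C, 5% CO2. Dose range 10 to 10^−8 μg/ml; 5×10^3 cells/well pre-attached 18 h.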

HT-29 = assay: cells; details: Homo sapiens, HT-29, 48 h
Outline: as §1

[1] = Inhibition of cells growth by colorimetric assay (SRB); details: human
Outline: as §1

HMEC1 = assay: as above
Outline: as §1

LoVo = assay: cells; details: Homo sapiens, LoVo, 48 h; for GI50: read-out: LOVO GI50; for CC50: read-out: LOVO LC50; for IC (TGI): read-out: LOVO TGI
Outline: as §1

PANC-1 = assay: Inhibition of cells growth by colorimetric assay (SRB); details: Homo sapiens, PANC-1, 48 h; for GI50: read-out: PANC-1 GI50; for CC50: read-out: PANC-1 LC50; for IC (TGI): read-out: PANC-1 TGI
Outline: as §1

LoVo-Dox = assay: as above; details: Homo sapiens, 48 h; for GI50: read-out: LOVO-DOX GI50; for CC50: read-out: LOVO-DOX LC50; for IC (TGI): read-out: LOVO-DOX TGI
Outline: as §1

HeLa-APL = assay: as above; details: Homo sapiens, 48 h
Outline: as §1

SK-MEL-28 = assay: as above; details: Homo sapiens, SK-MEL-28, 48 h; for GI50: read-out: MEL-28 GI50; for CC50: read-out: MEL-28 LC50; for IC (TGI): read-out: MEL-28 TGI
Outline: as §1

IGROV-1 = assay: as above; details: Homo sapiens, IGROV-1, 48 h; for GI50: read-out: IGROV GI50; for CC50: read-out: IGROV LC50; for IC (TGI): read-out: IGROV TGI
Outline: as §1

HeLa = assay: as above; details: Homo sapiens, HeLa, 48 h
Outline: as §1

LNCaP = assay: as above; details: Homo sapiens, LNCaP, 48 h; for GI50: read-out: LNCAP GI50; for CC50: read-out: LNCAP LC50; for IC (TGI): read-out: LNCAP TGI
Outline: as §1

SK-BR-3 = assay: as above; details: Homo sapiens, SK-BR-3, 48 h
Outline: as §1

K-562 = assay: as above; details: Homo sapiens, K562, 48 h; for GI50: read-out: K562 GI50; for CC50: read-out: K562 LC50; for IC (TGI): read-out: K562 TGI
Outline: as §1

DU-145 = assay: as above; details: Homo sapiens, DU-145, 48 h; for GI50: read-out: DU145 GI50; for CC50: read-out: DU145 LC50; for IC (TGI): read-out: DU145 TGI
Outline: as §1

IGROV-ET = assay: as above; details: Homo sapiens, 48 h; for GI50: read-out: IGROV-ET GI50; for CC50: read-out: IGROV-ET LC50; for IC (TGI): read-out: IGROV-ET TGI
Outline: as §1

SK-OV-3 = assay: as above; details: for GI50 / CC50: Homo sapiens, SK-OV-3, 48 h; for GI50: read-out: SK-OV3 GI50; for CC50: read-out: SK-OV3 LC50; for SK-OV3 TGI: SRB, 48 hours exposure
Outline: as §1

## COc1cc2c(cc1O)CCN[C@]21CS[C@@H]2c3c(OC(C)=O)c(C)c4c(c3[C@H](COC1=O)N1C2C2N[C@@H](Cc3cc(C)c(OC)c(O)c32)[C@@H]1C#N)OCO4 (stereo partly drawn) [compound 15]
A-549; read-out: GI50 A549
  GI50: 2 nM
A-549; read-out: LC50 A549
  CC50: 176 nM
A-549; read-out: TGI A549
  IC (TGI): 7.35 nM
HT-29; read-out: GI50 HT29
  GI50: 0.484 nM
HT-29; read-out: LC50 HT29
  CC50: 3130 nM
HT-29; read-out: TGI HT29
  IC (TGI): 5.35 nM
[1]
  CC50 at 48 h: 4440 nM
HMEC1; H-MEC-1, SRB, 48 hours exposure
  TGI H-MEC-1: 1.32E−08 Molar
HMEC1; Homo sapiens, HMEC-1, 48 h, read-out: GI50 H-MEC-1
  GI50: 0.556 nM

## COc1cc2c(cc1O)CCN[C@]21CS[C@@H]2c3c(O)c(C)c4c(c3[C@H](COC1=O)N1C2[C@@H]2N[C@@H](Cc3cc(C)c(OC)c(O)c32)[C@@H]1O)OCO4 (stereo partly drawn) [compound 68]
A-549; read-out: A549 GI50
  GI50: 28.1 nM
A-549; read-out: A549 LC50
  CC50: 6290 nM
A-549; read-out: A549 TGI
  IC (TGI): 113 nM
HT-29; read-out: HT29 GI50
  GI50: 6.66 nM
HT-29; read-out: HT29 LC50
  CC50: 14200 nM
HT-29; read-out: HT29 TGI
  IC (TGI): 15 nM
LoVo
  GI50: 12 nM
  CC50: 1930 nM
  IC (TGI): 48 nM
PANC-1
  GI50: 3.9 nM
  CC50: 2070 nM
  IC (TGI): 12.8 nM
LoVo-Dox
  GI50: 472 nM
  CC50: 14200 nM
  IC (TGI): 14200 nM
HeLa-APL; read-out: HELA-APL GI50
  GI50: 3.81 nM
HeLa-APL; read-out: HELA-APL LC50
  CC50: 10.4 nM
HeLa-APL; read-out: HELA-APL TGI
  IC (TGI): 6.32 nM
SK-MEL-28
  GI50: 5.45 nM
  CC50: 52.1 nM
  IC (TGI): 15.7 nM
IGROV-1
  GI50: 3.94 nM
  CC50: 35.1 nM
  IC (TGI): 8.01 nM
HeLa; read-out: HELA GI50
  GI50: 4 nM
HeLa; read-out: HELA LC50
  CC50: 12.4 nM
HeLa; read-out: HELA TGI
  IC (TGI): 7.06 nM
LNCaP
  GI50: 1.59 nM
  CC50: 8.64 nM
  IC (TGI): 3.7 nM
SK-BR-3; read-out: SK-BR3 GI50
  GI50: 7.2 nM
SK-BR-3; read-out: SK-BR3 LC50
  CC50: 14200 nM
SK-BR-3; read-out: SK-BR3 TGI
  IC (TGI): 153 nM
K-562
  GI50: 2.65 nM
  CC50: 234 nM
  IC (TGI): 6.6 nM
DU-145
  GI50: 4.68 nM
  CC50: 14200 nM
  IC (TGI): 1.5 nM
IGROV-ET
  GI50: 290 nM
  CC50: 8630 nM
  IC (TGI): 1660 nM

## COc1cc2c(cc1O)CCN[C@]21CS[C@@H]2c3c(OC(C)=O)c(C)c4c(c3[C@H](CNC1=O)N1C2[C@H]2c3c(cc(C)c(OC)c3O)C[C@@H]([C@@H]1C#N)N2C)OCO4 (stereo partly drawn) [compound 76]
A-549; read-out: A549 GI50
  GI50: 413 nM
A-549; read-out: A549 LC50
  CC50: 4650 nM
A-549; read-out: A549 TGI
  IC (TGI): 840 nM
HT-29; read-out: HT29 GI50
  GI50: 627 nM
HT-29; read-out: HT29 LC50
  CC50: 13000 nM
HT-29; read-out: HT29 TGI
  IC (TGI): 1300 nM
LoVo
  GI50: 274 nM
  CC50: 1300 nM
  IC (TGI): 683 nM
PANC-1
  GI50: 695 nM
  CC50: 13000 nM
  IC (TGI): 4970 nM
LoVo-Dox
  GI50: 2660 nM
  CC50: 13000 nM
  IC (TGI): 8130 nM
SK-MEL-28
  GI50: 238 nM
  CC50: 1270 nM
  IC (TGI): 549 nM
IGROV-1
  GI50: 197 nM
  CC50: 5250 nM
  IC (TGI): 648 nM
SK-OV-3
  GI50: 547 nM
  CC50: 13000 nM
  SK-OV3 TGI: 1.90E−06 Molar
LNCaP
  GI50: 46.6 nM
  CC50: 257 nM
  IC (TGI): 80.7 nM
K-562
  GI50: 26.9 nM
  CC50: 13000 nM
  IC (TGI): 130 nM
DU-145
  GI50: 492 nM
  CC50: 13000 nM
  IC (TGI): 1340 nM
IGROV-ET
  GI50: 513 nM
  CC50: 1300 nM
  IC (TGI): 924 nM

## COc1cc2c(cc1O)CCN[C@]21CS[C@@H]2c3c(OC(C)=O)c(C)c4c(c3[C@H](CNC1=O)N1C2[C@H]2c3c(cc(C)c(OC)c3O)CC([C@@H]1O)N2C)OCO4 (stereo partly drawn) [compound 77]
A-549; read-out: A549 GI50
  GI50: 301 nM
A-549; read-out: A549 LC50
  CC50: 3650 nM
A-549; read-out: A549 TGI
  IC (TGI): 728 nM
HT-29; read-out: HT29 GI50
  GI50: 189 nM
HT-29; read-out: HT29 LC50
  CC50: 13100 nM
HT-29; read-out: HT29 TGI
  IC (TGI): 908 nM
LoVo
  GI50: 241 nM
  CC50: 13100 nM
  IC (TGI): 917 nM
PANC-1
  GI50: 418 nM
  CC50: 13100 nM
  IC (TGI): 2720 nM
LoVo-Dox
  GI50: 929 nM
  CC50: 13100 nM
  IC (TGI): 5660 nM
SK-MEL-28
  GI50: 63.1 nM
  CC50: 756 nM
  IC (TGI): 175 nM
IGROV-1
  GI50: 58 nM
  CC50: 6320 nM
  IC (TGI): 272 nM
SK-OV-3
  GI50: 439 nM
  CC50: 13100 nM
  SK-OV3 TGI: 4.86E−06 Molar
LNCaP
  GI50: 43.5 nM
  CC50: 118 nM
  IC (TGI): 71 nM
K-562
  GI50: 16.6 nM
  CC50: 13100 nM
  IC (TGI): 101 nM
DU-145
  GI50: 301 nM
  CC50: 13100 nM
  IC (TGI): 1160 nM
IGROV-ET
  GI50: 652 nM
  CC50: 13100 nM
  IC (TGI): 1700 nM
